Laboratory results: US20060183902A1, “Dihydroindolyl methanones as alpha 1a/1d adrenoreceptor modulators for the treatment of benign prostatic hypertrophy and lower urinary tract symptoms” (priority 2005, published 2006)
Where “and” joins values, the source holds several entries; their conditions need not be identical. Equal entries are not always repeated. Where two headings read alike, the source gives them in different places.

Assays:
α1b-AR = target: T1, α1b-AR (Homo sapiens, UniProt P35368); assay: α1-Adrenergic receptor radio-ligand (125I-HEAT) binding assay, α1b subtype; settings: COS-7 cell membranes transfected with α1b-AR, 125I-HEAT 50 pM
T1 construct: expressed in transfected cells; host or cells: COS-7
T1 sequence (P35368 1-520): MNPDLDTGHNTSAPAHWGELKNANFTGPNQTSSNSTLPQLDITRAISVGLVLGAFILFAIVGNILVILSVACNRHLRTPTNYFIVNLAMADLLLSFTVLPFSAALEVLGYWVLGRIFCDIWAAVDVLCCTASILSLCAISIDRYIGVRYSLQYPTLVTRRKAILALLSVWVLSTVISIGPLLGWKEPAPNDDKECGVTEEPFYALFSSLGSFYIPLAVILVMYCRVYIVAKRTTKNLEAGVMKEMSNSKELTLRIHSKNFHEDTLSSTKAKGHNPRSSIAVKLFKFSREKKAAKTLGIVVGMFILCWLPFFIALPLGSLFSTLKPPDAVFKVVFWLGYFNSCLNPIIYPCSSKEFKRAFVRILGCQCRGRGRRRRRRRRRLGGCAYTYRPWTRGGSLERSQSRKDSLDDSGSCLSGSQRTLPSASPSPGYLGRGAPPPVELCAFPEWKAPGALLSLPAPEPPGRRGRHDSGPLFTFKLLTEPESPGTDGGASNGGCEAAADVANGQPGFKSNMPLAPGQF
Method: (§1) Membranes were prepared from COS-7 cells (African Green monkey kidney SV40-transformed cells) that had been transfected with one of the three α1-AR subtypes by the following method:
(§2) COS cells from ten 100 mm tissue culture plates were scraped into a 5 mL volume of TE (a mixture of 50 mM tris(hydroxymethyl)aminomethane hydrochloride (Tris-HCl) and 5 mM ethylenediaminetetraacetic acid (EDTA) at pH 7.4). The cell suspension was disrupted with a Brinkman Polytron (at a setting of 8) for 10 sec. The disrupted cells were centrifuged at 1000×g for 10 min at 4° C. Supernatants were centrifuged at 34,500×g for 20 min at 4° C. The membrane pellets were suspended in a 2 mL volume of TNE (a mixture of 50 mM Tris-HCl, 5 mM EDTA and 150 mM NaCl at pH7.4). An aliquot of the membrane suspension was stored at −70° C. until use. The protein concentration was determined using a BioRad “DC” protein assay kit following membrane solubilization with Triton X-100.
(§3) Triplicate determinations of radio-ligand binding in the presence of increasing concentrations of testing compound were made. The reagents were added to 96-well polypropylene plate wells. Each assay well contained 140 μL TNE, 25 μL ^125I-2-(β-4-hydroxyplenyl)ethylaminomethyltetralone (^125I-HEAT) (specific activity 2200 Ci/mmol, Dupont-New England Nuclear, 50 pM final), 10 μL testing compound dissolved in dimethyl sulfoxide (DMSO) (1 pM to 10 μM in half-log increments, final), and 25 μL appropriate α1-AR membrane subtype suspension in TNE (0.5 ng/μL for the α1a and α1b subtypes and 13 ng/μL for the α1d subtype). The plate was incubated at rt for 1 hr. The contents of the wells were filtered through a glass filter (type C) (GF/C) membrane Unifilter plate (Packard Instruments) using the Packard Filtermate cell harvester. The filter plates were dried in a vacuum oven for 30 min at 40° C. 25 μL Microscint 20 liquid scintillation fluid (Packard Instuments) was added to each well. The radioactive content was analyzed in the TopCount microplate scintillation counter (Packard Instruments).
(§4) The Ki values (in nM) shown in Table 1 were determined using GraphPad Prism software.

α1a-AR = target: T2, α1a-AR (Homo sapiens, UniProt P35348); assay: α1-Adrenergic receptor radio-ligand (125I-HEAT) binding assay, α1a subtype; settings: COS-7 cell membranes transfected with α1a-AR, 125I-HEAT 50 pM
T2 construct: expressed in transfected cells; host or cells: COS-7
T2 sequence (P35348 1-466): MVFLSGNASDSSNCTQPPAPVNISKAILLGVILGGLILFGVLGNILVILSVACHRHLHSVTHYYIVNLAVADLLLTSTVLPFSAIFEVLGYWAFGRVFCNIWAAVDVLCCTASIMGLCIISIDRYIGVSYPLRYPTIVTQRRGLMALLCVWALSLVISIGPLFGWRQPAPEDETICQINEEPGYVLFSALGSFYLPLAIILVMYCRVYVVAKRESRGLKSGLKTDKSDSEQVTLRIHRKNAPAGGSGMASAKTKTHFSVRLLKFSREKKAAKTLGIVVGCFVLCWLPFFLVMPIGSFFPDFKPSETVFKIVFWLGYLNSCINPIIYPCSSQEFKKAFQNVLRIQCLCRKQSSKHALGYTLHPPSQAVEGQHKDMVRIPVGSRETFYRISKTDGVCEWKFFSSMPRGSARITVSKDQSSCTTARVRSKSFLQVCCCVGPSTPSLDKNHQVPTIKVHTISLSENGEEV
Method: as §1, §2, §3, §4

α1d-AR = target: T3, α1d-AR (Homo sapiens, UniProt P25100); assay: α1-Adrenergic receptor radio-ligand (125I-HEAT) binding assay, α1d subtype; settings: COS-7 cell membranes transfected with α1d-AR, 125I-HEAT 50 pM
T3 construct: expressed in transfected cells; host or cells: COS-7
T3 sequence (P25100 1-572): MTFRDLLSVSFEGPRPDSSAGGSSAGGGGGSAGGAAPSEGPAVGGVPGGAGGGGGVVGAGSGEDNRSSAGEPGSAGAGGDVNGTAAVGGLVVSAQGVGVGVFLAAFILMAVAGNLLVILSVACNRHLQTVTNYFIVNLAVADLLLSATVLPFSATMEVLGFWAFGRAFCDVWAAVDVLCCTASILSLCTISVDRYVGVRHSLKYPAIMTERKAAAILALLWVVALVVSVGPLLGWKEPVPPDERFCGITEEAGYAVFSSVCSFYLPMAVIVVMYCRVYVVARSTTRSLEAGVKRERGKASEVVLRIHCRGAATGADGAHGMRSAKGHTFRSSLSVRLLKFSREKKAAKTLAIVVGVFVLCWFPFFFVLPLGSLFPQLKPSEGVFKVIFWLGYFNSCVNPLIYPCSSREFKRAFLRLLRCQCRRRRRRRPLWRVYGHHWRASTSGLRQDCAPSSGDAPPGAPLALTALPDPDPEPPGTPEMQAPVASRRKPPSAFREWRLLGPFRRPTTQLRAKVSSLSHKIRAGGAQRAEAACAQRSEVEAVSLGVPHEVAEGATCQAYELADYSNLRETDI
Method: as §1, §2, §3, §4

[1] = read-out: Receptor Binding, Ki α1b-AR
[2] = read-out: Receptor Binding, Ki α1a-AR
[3] = read-out: Receptor Binding, Ki α1d-AR

Row | Ki (α1b-AR; [1]) | Ki (α1a-AR; [2]) | Ki (α1d-AR; [3]) | SMILES | Ki (α1b-AR; Receptor Binding, Ki α1b-AR) [nM] | Ki (α1a-AR; Receptor Binding, Ki α1a-AR) [nM] | Ki (α1d-AR; Receptor Binding, Ki α1d-AR) [nM]
1 | 143 nM | 1.9 nM | 2 nM | CC(C)Oc1ccccc1N1CCN(Cc2cccc(C(=O)N3CCc4ccc(N)cc43)c2)CC1 [Cpd 5, (6-amino-2,3-dihydro-indol-1-yl)-{3-[4-(2-isopropoxy-phenyl)-piperazin-1-ylmethyl]-phenyl}-methanone] | – | – | –
2 | 684 nM | 11 nM | 16 nM | COc1cccc(OC)c1CNc1ccc2c(c1)N(C(=O)c1cccc(CN3CCN(c4ccccc4OC(C)C)CC3)c1)CC2 [Cpd 7, [6-(2,6-dimethoxy-benzylamino)-2,3-dihydro-indol-1-yl]-{3-[4-(2-isopropoxy-phenyl)-piperazin-1-ylmethyl]-phenyl}-methanone] | – | – | –
3 | – | 836 nM | 250 nM | CCCCCCCCc1ccc(CNc2ccc3c(c2)N(C(=O)c2cccc(CN4CCN(c5ccccc5OC(C)C)CC4)c2)CC3)cc1 [Cpd 10, {3-[4-(2-isopropoxy-phenyl)-piperazin-1-ylmethyl]-phenyl}-[6-(4-octyl-benzylamino)-2,3-dihydro-indol-1-yl]-methanone] | – | – | –
4 | – | – | – | Cc1ccc(OC(=O)Nc2ccc3c(c2)N(C(=O)c2cccc(CN4CCN(c5ccccc5OC(C)C)CC4)c2)CC3)cc1 [Cpd 12, (1-{3-[4-(2-isopropoxy-phenyl)-piperazin-1-ylmethyl]-benzoyl}-2,3-dihydro-1H-indol-6-yl)-carbamic acid p-tolyl ester] | 495 | 3.3 | 5.7
5 | 305 nM | 33 nM | 4 nM and 3.11 nM | CC(C)Oc1ccccc1N1CCN(Cc2cccc(C(=O)N3CCc4ccc(NC(=S)Nc5ccccc5)cc43)c2)CC1 [Cpd 13, 1-(1-{3-[4-(2-isopropoxy-phenyl)-piperazin-1-ylmethyl]-benzoyl}-2,3-dihydro-1H-indol-6-yl)-3-phenyl-thiourea] | – | – | –
6 | – | 22 nM | 4 nM | CC(C)Oc1ccccc1N1CCN(Cc2cccc(C(=O)N3CCc4cc(NC(=O)Nc5ccc(Cl)cc5Cl)ccc43)c2)CC1 [Cpd 14, 1-(2,4-dichloro-phenyl)-3-(1-{3-[4-(2-isopropoxy-phenyl)-piperazin-1-ylmethyl]-benzoyl}-2,3-dihydro-1H-indol-5-yl)-urea] | – | – | –
7 | 91 nM | 1 nM | 700 nM | CC(=O)Nc1ccc(S(=O)(=O)Nc2ccc3c(c2)N(C(=O)c2cccc(CN4CCN(c5ccccc5OC(C)C)CC4)c2)CC3)cc1 [Cpd 15, N-[4-(1-{3-[4-(2-isopropoxy-phenyl)-piperazin-1-ylmethyl]-benzoyl}-2,3-dihydro-1H-indol-6-ylsulfamoyl)-phenyl]-acetamide] | – | – | –
8 | 282 nM | 5.5 nM | 3.4 nM | CC(C)Oc1ccccc1N1CCN(Cc2cccc(C(=O)N3CCc4ccc(NC5CCc6ccccc6C5)cc43)c2)CC1 (stereo not shown) [Cpd 16, {3-[4-(2-isopropoxy-phenyl)-piperazin-1-ylmethyl]-phenyl}-[6-(1,2,3,4-tetrahydro-naphthalen-2-ylamino)-2,3-dihydro-indol-1-yl]-methanone] | – | – | –
9 | 812 nM | 14 nM | 7.6 nM | CC(C)Oc1ccccc1N1CCN(Cc2cccc(C(=O)N3CCc4cc(NS(N)(=O)=O)ccc43)c2)CC1 [Cpd 17, N-(1-{3-[4-(2-isopropoxy-phenyl)-piperazin-1-ylmethyl]-benzoyl}-2,3-dihydro-1H-indol-5-yl)-sulfamide] | – | – | –
10 | 494 nM and 394 nM | 4.7 nM and 8.1 nM | 1.9 nM and 2.6 nM | CC(C)Oc1ccccc1N1CCN(Cc2cccc(C(=O)N3CCc4ccc(NS(N)(=O)=O)cc43)c2)CC1 [Cpd 20, N-(1-{3-[4-(2-isopropoxy-phenyl)-piperazin-1-ylmethyl]-benzoyl}-2,3-dihydro-1H-indol-6-yl)-sulfamide] | – | – | –
11 | 1390 nM | 73 nM | 12.5 nM | CC(C)Oc1ccccc1N1CCN(Cc2cccc(C(=O)N3CCc4cc(NC(=O)Nc5ccccc5)ccc43)c2)CC1 [Cpd 21, 1-(1-{3-[4-(2-isopropoxy-phenyl)-piperazin-1-ylmethyl]-benzoyl}-2,3-dihydro-1H-indol-5-yl)-3-phenyl-urea] | – | – | –
12 | 251 nM | 39 nM | 5 nM | CC(C)Oc1ccccc1N1CCN(Cc2cccc(C(=O)N3CCc4ccc(NC(=O)Nc5ccccc5)cc43)c2)CC1 [Cpd 22, 1-(1-{3-[4-(2-isopropoxy-phenyl)-piperazin-1-ylmethyl]-benzoyl}-2,3-dihydro-1H-indol-6-yl)-3-phenyl-urea] | – | – | –
13 | 847 nM | 20.8 nM | – | COc1ccc(OC)c2c1CC(Nc1ccc3c(c1)N(C(=O)c1cccc(CN4CCN(c5ccccc5OC(C)C)CC4)c1)CC3)C2 [Cpd 29, [6-(4,7-dimethoxy-indan-2-ylamino)-2,3-dihydro-indol-1-yl]-{3-[4-(2-isopropoxy-phenyl)-piperazin-1-ylmethyl]-phenyl}-methanone] | – | – | –
14 | – | 1.3 nM | 4.2 nM | CC(C)Oc1ccccc1N1CCN(Cc2cccc(C(=O)N3CCc4ccc(NCc5ccccc5F)cc43)c2)CC1 [Cpd 44, [6-(2-fluoro-benzylamino)-2,3-dihydro-indol-1-yl]-{3-[4-(2-isopropoxy-phenyl)-piperazin-1-ylmethyl]-phenyl}-methanone] | – | – | –
15 | – | 67.5 nM | – | CC(C)(C)OC(=O)N1CCN(Cc2cccc(C(=O)N3CCc4ccccc43)c2)CC1 [Cpd 54, 4-[3-(2,3-dihydro-indole-1-carbonyl)-benzyl]-piperazine-1-carboxylic acid tert-butyl ester] | – | – | –
16 | – | – | 0.5 nM and 1.9 nM | O=C(c1cccc(CN2CCN(c3ccccc3OCC(F)(F)F)CC2)c1)N1CCc2ccccc21 [Cpd 63, (2,3-dihydro-indol-1-yl)-(3-{4-[2-(2,2,2-trifluoro-ethoxy)-phenyl]-piperazin-1-ylmethyl}-phenyl)-methanone] | – | – | –
